Assay results taken from article PMC2453633 (Diabetes, 2008).
pIC50: −log10 of the molar value. Peptide text beside a SMILES is read from it.

How the values were obtained:
I-A^k = I-A^k (Mus musculus, UniProt P01910+P06343); test: Peptide-binding assay on soluble I-A^k
I-A^g7 = molecular target: T1, I-A^g7 (Mus musculus, UniProt P04228+Q31135); format: binding
T1 sequence (P04228 24-256): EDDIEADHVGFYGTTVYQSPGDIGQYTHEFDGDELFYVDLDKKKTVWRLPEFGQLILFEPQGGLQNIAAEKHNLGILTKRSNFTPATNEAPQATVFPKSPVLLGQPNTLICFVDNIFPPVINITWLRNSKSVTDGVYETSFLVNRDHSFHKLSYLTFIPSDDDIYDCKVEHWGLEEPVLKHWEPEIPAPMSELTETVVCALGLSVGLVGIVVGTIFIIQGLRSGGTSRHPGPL
T1 sequence (Q31135 1-263): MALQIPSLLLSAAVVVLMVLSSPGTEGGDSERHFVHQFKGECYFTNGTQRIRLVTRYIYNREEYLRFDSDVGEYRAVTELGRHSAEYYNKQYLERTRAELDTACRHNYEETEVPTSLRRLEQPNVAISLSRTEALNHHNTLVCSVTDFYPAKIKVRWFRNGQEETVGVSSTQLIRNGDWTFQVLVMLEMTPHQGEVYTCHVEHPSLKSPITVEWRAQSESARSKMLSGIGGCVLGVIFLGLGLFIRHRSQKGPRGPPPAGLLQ

ACP T-cell hybridomas = test: T-cell hybridoma reactivity with nonamers spanning PI-1; format: cell-based, mouse; conditions: eight ACP T-cell hybridomas tested; all negative

Compound | pIC50 (I-A^k) | pIC50 (I-A^g7) | T-cells reactive with nonamer (of T-cells tested) (ACP T-cell hybridomas)
CC(C)C[C@H](NC(=O)[C@H](C)NC(=O)[C@H](CC(C)C)NC(=O)[C@@H](NC(=O)[C@H](CCC(N)=O)NC(=O)[C@H](CC(C)C)NC(=O)[C@H](CC(=O)O)NC(=O)CNC(=O)[C@@H]1CCCN1C(=O)[C@@H](N)CO)[C@@H](C)O)C(=O)N[C@@H](CCC(=O)O)C(=O)N[C@H](C(=O)N[C@@H](C)C(=O)N[C@@H](CCCNC(=N)N)C(=O)N[C@@H](CCC(N)=O)C(=O)N[C@@H](CCCCN)C(=O)N[C@@H](CCCNC(=N)N)C(=O)NCC(=O)O)C(C)C [PI-1(47–64)] (H-SPGDLQTLALEVARQKRG-OH) | 5.32 | 4.00 | 
CC(C)C[C@H](NC(=O)[C@H](C)NC(=O)[C@H](CC(C)C)NC(=O)[C@@H](NC(=O)[C@H](CCC(N)=O)NC(=O)[C@H](CC(C)C)NC(=O)[C@H](CC(=O)O)NC(=O)CNC(=O)[C@H](C)NC(=O)CN)[C@@H](C)O)C(=O)N[C@@H](CCC(=O)O)C(=O)N[C@H](C(=O)N[C@@H](C)C(=O)N[C@@H](CCC(N)=O)C(=O)N[C@@H](CCC(N)=O)C(=O)N[C@@H](CCCCN)C(=O)N[C@@H](CCCNC(=N)N)C(=O)NCC(=O)O)C(C)C [PI-2(49–66)] (H-GAGDLQTLALEVAQQKRG-OH) | 5.68 | 3.87 | 
CC(C)[C@H](NC(=O)[C@H](CCCCN)NC(=O)[C@H](CCCCN)NC(=O)CN)C(=O)N[C@@H](C)C(=O)N[C@H](C(=O)N[C@H](C(=O)N[C@H](C(=O)N[C@@H](Cc1c[nH]cn1)C(=O)N[C@@H](C)C(=O)NCC(=O)N[C@@H](Cc1ccc(O)cc1)C(=O)NCC(=O)O)C(C)C)[C@@H](C)O)[C@@H](C)O [MIME, reference compound] (H-GKKVATTVHAGYG-OH) |  | 6.00 | 
LQTLALEVA |  |  | 0 of 8
TLALEVARQ |  |  | 0 of 8
QTLALEVAR |  |  | 0 of 8
CC(C)C[C@H](NC(=O)[C@H](C)NC(=O)[C@H](CC(C)C)NC(=O)[C@@H](NC(=O)[C@H](CCC(N)=O)NC(=O)[C@H](CC(C)C)NC(=O)[C@H](CC(=O)O)NC(=O)CN)[C@@H](C)O)C(=O)N[C@@H](CCC(=O)O)C(=O)N[C@H](C(=O)N[C@@H](C)C(=O)N[C@@H](CCCNC(=N)N)C(=O)N[C@@H](CCC(N)=O)C(=O)O)C(C)C [PI-1(49–61)] (H-GDLQTLALEVARQ-OH) |  | 4.70 | 
